Results as given in patent US11773086B2, “Fungal modulators” (TRUSTEES OF BOSTON UNIVERSITY, priority 2020, dated 2023).

System: C. auris
Test: microbe, parasite or virus in culture
Assay type: cell-based, Candida auris
Conditions: Candidozyma auris; Etest; read-out: fluconazole MIC in absence of azoffluxin
Procedure: FIGS. 2A-2E illustrate the above-described screening of the BU-CMD which identified azoffluxin as a fluconazole (FLC) potentiator against C. auris. […] Growth, as determined by optical density at 600 nm (OD600), is plotted in the presence of each CMD compound alone on the y-axis and in combination with FLC on the x-axis. Dotted lines represent 7-median absolute deviations from the median for each condition. […] FIG. 2B depicts the synergistic interactions. […] Growth was measured by the OD600 and normalized to the no drug control (see color bar). The fractional inhibitory concentration index (FICI) was calculated to determine the chemical interaction, with a value below 0.5 indicating synergy. […] FIG. 2D depicts FLC Etest strips in the presence and absence of 50 μM azoffluxin. A total of 1×10^6 C. auris cells were added to YPD agar plates, the E-test strip was added, and plates were incubated at 30° C. for 24 hours prior to imaging. FIG. 2. […] Dose-response assay where a two-fold dilution of azoffluxin was titered starting from 50 μM. Indicated titrations have a background concentration of FLC of 32 μg/mL, 4 μg/mL, 0.25 μg/mL, and 0.5 μg/mL for C. auris Ci6684 (Erg11Y132F), C. albicans (SN95), C. glabrata (BG2) or S. cerevisiae (BY4741), respectively. […] Dose response assays were incubated for 48 hours at 30° C. in RPMI. Growth in each well was plotted by the relative optical density to the respective no drug control (See color bar in FIG. 2B).
Compound potency was assessed alone by dose response assays or in combination with another compound by dose-response matrixes in 96-well plates, or 384-well, flat-bottom, microtiter plates (Corning) as previously described. Plates were incubated at 30° C. for the indicated time period. Growth was quantified by measuring OD600 and corrected for medium background. All strains were assessed in biological duplicate experiments with technical duplicates. […] For dose-response matrixes fractional inhibitory concentration index at 90% growth inhibition (FICI90) was calculated as previously described. […]

OC(Cn1cncn1)(Cn1cncn1)c1ccc(F)cc1F [fluconazole, reference compound]
MIC: > 256 µg/mL
